What was measured:
[1] = Solubility in water; type: physicochemical
Procedure: 37.7 g (0.1 mol) of sodium 11,15-dihydroxy-9-oxoprost-13-en-1-oate was dissolved in 100 ml of acetonitrile. 26.1 g (0.1 mol) of 2-Bromo-N,N-diethylethylamine.HBr and 8.6 g of sodium bicarbonate were added into the reaction mixture. The mixture was stirred for overnight at RT. The solvents were evaporated off. 250 ml of ethyl acetate was added into the reaction mixture and the mixture was washed with water (3×100 ml). The organic solution was dried over anhydrous sodium sulfate. Sodium sulfate was removed by filtration. 6 g of acetic acid was added into the reaction mixture with stirring. Hexane (200 ml) was added. The solid product was collected by filtration. After drying, it yielded 42 g of the desired product (81.8%). Hygroscopic product; Solubility in water: 100 mg/ml; Elementary analysis: C28H51NO7; MW: 513.37. Calculated % C, 65.47; H, 10.01; N, 2.73; O, 21.80. Found % C, 65.42; H, 10.03; N, 2.70; O, 21.85.
43.7 g (0.1 mol) of 11,15-diacetoxy-9-oxoprosta-5,13-dien-1-oic acid was dissolved in 300 ml of chloroform. 20.6 g of N,N′-Dicyclohexylcarbodiimide was added into the reaction mixture. 11.7 g of N,N-diethylaminoethylamine was added into the reaction mixture. The mixture was stirred for 3 hours at RT. The solid was removed by filtration. The chloroform solution was washed with 5% NaHCO3 (2×100 ml) and water (3×100 ml). The organic solution was dried over anhydrous sodium sulfate. Sodium sulfate was removed by filtration. 6 g of acetic acid was added into the reaction mixture with stirring. Hexane (200 ml) was added. The solid product was collected by filtration. After drying, it yielded 45 g of the desired product (85.8%). Hygroscopic product; Solubility in water: 100 mg/ml; Elementary analysis: C34H59NO9S; MW: 657.90. Calculated % C, 62.07; H, 9.04; N, 2.13; O, 21.89; S, 4.87. Found % C, 62.02; H, 9.06; N, 2.11; O, 21.95; S, 4.86.
49.9 g (0.1 mol) of 9,11,15-triacetoxyprost-13-en-1-oic acid was dissolved in 300 ml of chloroform. 20.6 g of N,N′-Dicyclohexylcarbodiimide was added into the reaction mixture. 13.1 g of dimethylaminoethyl mercaptan was added into the reaction mixture. The mixture was stirred for 3 hours at RT. The solid was removed by filtration. The chloroform solution was washed with 5% NaHCO3 (2×100 ml) and water (3×100 ml). The organic solution was dried over anhydrous sodium sulfate. Sodium sulfate was removed by filtration. 6 g of acetic acid was added into the reaction mixture with stirring. Hexane (200 ml) was added. The solid product was collected by filtration. After drying, it yielded 45 g of the desired product (85.8%). Hygroscopic product; Solubility in water: 100 mg/ml; Elementary analysis: C32H53NO9; MW: […] Calculated % C, 64.51; H, 8.97; N, 2.35; O, 24.17. Found % C, 64.47; H, 8.99; N, 2.34; O, 24.20.
37.7 g (0.1 mol) of sodium 9,11,15-trihydroxyprosta-5,13-dien-1-oate was dissolved in 100 ml of acetonitrile. 39 g (0.15 mol) of 2-Bromo-N,N-diethylethylamine.HBr in ethyl acetate was added into the reaction mixture. The mixture was stirred for 3 h at RT. Then 8 g of sodium bicarbonate was added into the reaction mixture. The mixture is stirred for another 2 h at RT. The solvents were evaporated off. 250 ml of ethyl acetate was added into the reaction mixture and the mixture was washed with water (3×100 ml). The organic solution was dried over anhydrous sodium sulfate. Sodium sulfate was removed by filtration. 6 g of acetic acid was added into the reaction mixture with stirring. […] Calculated % C, 65.47; H, 10.01; N, 2.73; O, 21.80. […]

[2] = pH 7.4

Solubility in water [1]: 100 mg/mL
In vitro penetration rate (apparent flux), prodrug compounds [2]: 0.80 mg/cm^2/h
Structure (SMILES): CC(=O)O.CCCCCC(C)(O)C=C[C@H]1C(O)CC(O)[C@@H]1CC=CCCCC(=O)OCCN(CC)CC (some centres unmarked) [N,N-diethylaminoethyl 9,11,15-trihydroxy-15-methylprosta-5,13-dien-1-oate.AcOH]

— patent publication US11555014B2, “High penetration prodrug compositions of prostaglandins and related compounds” (Techfields Pharma Co., Ltd., priority 2006, dated 2023)
